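How tested: cells in 96-well plates exposed to compound for 48 hours at five concentrations. At the TGI there is no net growth.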
How the values were obtained:
Assay in all cases: DTP human tumour cell line panel, 48 h
A498 renal = test system: A498 renal
CCRF-CEM leukemia = test system: CCRF-CEM leukemia
HOP-62 NSCLC = test system: HOP-62 NSCLC
HOP-92 NSCLC = test system: HOP-92 NSCLC
HS 578T breast = test system: HS 578T breast
HT29 colon = test system: HT29 colon
NCI-H522 lung = test system: NCI-H522 lung
OVCAR-8 ovarian = test system: OVCAR-8 ovarian
SF-295 CNS = test system: SF-295 CNS
T-47D breast = test system: T-47D breast

Row | Compound | TGI (A498 renal) [µM] | TGI (CCRF-CEM leukemia) [µM] | TGI (HOP-62 NSCLC) [µM] | TGI (HOP-92 NSCLC) [µM] | TGI (HS 578T breast) [µM] | TGI (HT29 colon) [µM] | TGI (NCI-H522 lung) [µM] | TGI (OVCAR-8 ovarian) [µM] | TGI (SF-295 CNS) [µM] | TGI (T-47D breast) [µM]
1 | COc1cc(C(O)c2ccc3c(c2)OCO3)cc(OC)c1OC (stereo not given) | > 100 | > 100 | > 100 | > 100 | > 100 | > 100 | > 100 | > 100 | > 100 | > 100
2 | Clc1ccc(/C(=C\c2ccccc2)Cn2ccnc2)cc1 | 42.1 | > 100 | 38.3 | 39.4 | > 100 | 30.1 | 28 | 33.4 | 49.4 | 69.9
3 | CON(C)C(=O)C1CCCO1 (stereo not given) | > 100 | > 100 | > 100 | > 100 | > 100 | > 100 | > 100 | > 100 | > 100 | > 100
4 | CC(C)[Si](OC/C(=C/COC(C)(C)C)[C@H]1CC=C(C(=O)c2ccccc2N2CN(C)C(=O)N(C)C2)C1)(C(C)C)C(C)C | 34.5 | > 100 | 31.5 | 25.1 | 13.2 | 18.7 | 19.7 | 18.1 | 28.9 | 23.6
5 | CCNc1ncnc2sc(SCc3ccccc3)nc12 | > 100 | > 100 | > 100 | 81 | > 100 | > 100 | > 100 | > 100 | > 100 | > 100
6 | C(=C\c1ccccc1)/COc1ccccc1C(N1CCOCC1)n1nc2ccccc2n1 (stereo not given) | > 100 | 6.14 | 20.4 | 21.9 | 41.2 | 10.7 | 49.3 | 14 | 28.7 | 43.8
7 | O=C(/C=C/c1ccc2c(c1)OCO2)Cc1nc2ccccc2[nH]c1=O | 65.7 | > 100 | 35.2 | 73.3 | 40 | > 100 | > 100 | > 100 | 52.7 | 34.2
8 | COc1ccc([C@H]2C=[N+]([O-])O[C@H](OC3CCCC3)[C@@H]2OC(C)=O)cc1OC | > 100 | 20.1 | > 100 | 32.9 | 78.5 | 54.7 | 17.9 | 62.2 | > 100 | 53.2
9 | COP(=O)(OC)C(Nc1ccc(Cc2ccc(NC(c3ccco3)P(=O)(OC)OC)cc2)cc1)c1ccco1 (stereo not given) | 56 | > 100 | 20.4 | 35.1 | > 100 | > 100 | > 100 | > 100 | 82.2 | > 100
10 | CC1=NNC(=O)C1C1CC(c2c[nH]c3ccccc23)=NN=C1Cl (stereo not given) | > 100 | 69.2 | > 100 | > 100 | > 100 | > 100 | > 100 | > 100 | > 100 | > 100
11 | CN1CCN(C2=C(Cl)C3(OCCS3)C(F)(F)C2(F)F)CC1 (stereo not given) | > 100 | > 100 | > 100 | > 100 | > 100 | > 100 | > 100 | > 100 | > 100 | > 100
12 | CC(C)N1CN(c2ccccc2)C2(CCN(CCCC(=O)c3ccc(F)cc3)CC2)C1=O | 7.06 | 9.61 | 11.9 | 16.6 | 49.1 | 7.85 | 49.8 | > 82 | 26.9 | 40.8
13 | CCOC(=O)C1CCC(=O)N1C(=O)c1ccccc1Cl (stereo not given) | > 100 | > 100 | > 100 | > 100 | > 100 | > 100 | > 100 | > 100 | > 100 | > 100
14 | O=[N+]([O-])c1cc(Cl)ccc1Sc1ccccc1 | > 100 | > 100 | > 100 | > 100 | > 100 | > 100 | > 100 | > 100 | > 100 | > 100
15 | C[C@H]1[C@H](C)CC[C@]2(C(=O)OC3OC(CO)C(O)C(O)C3O)CC[C@]3(C)C(=CC[C@@H]4[C@@]5(C)C[C@H]6OC(=O)c7cc(O)c(O)c(O)c7-c7c(cc(O)c(O)c7O)C(=O)O[C@@H]6C(CO)(CO)[C@@H]5CC[C@]43C)[C@H]12 (stereo not given in full) | > 100 | > 92.3 | > 100 | > 100 | > 100 | > 56 | 38.6 | > 100 | > 100 | > 100
16 | CN(C)c1ccc(Cc2cc3c(O)ccc(O)c3cc(Cc3ccc(N(C)C)cc3)c2=O)cc1 | > 75.5 | 7.36 | > 100 | 14.5 | 97.9 | 37.1 | 32.5 | 77.4 | > 100 | 26.8
17 | COC(=O)C1(O)C(c2ccccc2)=NC2(C)CCCC21 (stereo not given) | > 100 | > 100 | > 100 | > 100 | > 100 | > 100 | > 100 | > 100 | > 100 | > 100

— PubChem BioAssay (NCI)
